# From patent US20230105577A1, “A TOPICAL COMPOSITION” (Conopco, Inc., d/b/a UNILEVER, priority 2020, published 2023)
# Counter-ions that a name gives are not always drawn.
# Columns and labels:
# [1] = test system: M. furfur (CBS 1878); test: Zone of inhibition (ZOI) assay; assay type: cell-based, Malassezia furfur; conditions: 0.1% OCT, 10 μL on 6 mm filter paper, 32° C., 2 days
# Method: Method 2: Zone Off Inhibition (ZOI) Assay
# Atractylodes macrocephala (AM) root water extract (purchased from Huzhou Liaoyuan, China) was prepared at concentration of 0.75%, and 1.5% in 50% water/DMSO. Octopirox (OCT) was prepared at concentration of 0.1% and 0.2% in DMSO. Prepare Malassezia growth agar plates, and then spread 200 μL M. furfur (10^6 CFU) (CBS 1878) on to the agar. Several sterile filter papers (diameter=6 mm) were placed on the agar plate. 10 μL of compound solutions were added on the filter paper. The plates were Incubate at 32° C. for 2 days. Clear growth inhibition zone was recorded.
# Synergistic antimicrobial activity:Inhibition distance for compound1+compound2combination>Inhibition distance for compound1 alone+Inhibition distance for compound2 alone
# [2] = test system: M. furfur (CBS1878); conditions: for The range of concentration of the atractylenolide compound (ppm) where the ΣFIC was less than 0.9 / The range of ratio of atractylenolide compound/octopirox (w/w) where ΣFIC was less than 0.9: in combination with octopirox, 32° C.
# Method: Method 1: ΣFIC Assay Against M. furfur.
# M. furfur (CBS1878) was maintained on MD agar plate (Solution A) was cultured into 20 ml of growth medium Pityrosporum Broth (PB, Solution B). They are then incubated at 32° C. for 48 hours with shaking. Then, 1 ml of the first broth culture is transferred into 9 ml of fresh PB and incubated at 32° C. for 48 hours with shaking. The final culture should contain 2 to 6×10^6 cells/ml. This is achieved by diluting using PB to 5×10^5 cells/ml.
# Octopirox® was serially diluted (2-fold) to prepare in a range of 60-1000 ppm in the growth medium. Testing atractylenolide compound (stock: 4 mg/ml) was 2-fold serially diluted in DMSO to prepare in a range of 40000-10 ppm. Binary combinations of octopirox and the testing compound were prepared in 96-well plate by mixing 10 μl of octopirox solution with 10 μl of testing compound. The solution in each well were further mixed with 180 μl of M. furfur strain suspensions in PB.
# The final cell density in the testing plate is around 5*10^4 cell/ml. The final concentration of each ingredient in ppm (parts per million) after (20-fold dilution) was as follows. Each of these concentrations was tried out to determine the FIC value for (either of) Octopirox® in combination with one of the atractylenolide compound.
# Multi-channel pipette was used to mix the compound and strain suspension. Thereafter the 96-well plates were incubated in an incubator. In accordance with the test protocols that were followed, M. furfur was incubated aerobically at 32° C. for 1 day. Thereafter 20 μl alamar blue (0.1%) was dispensed in each well and the procedure of incubation (as abovementioned) was repeated. Finally, the change in colour of the indicator was monitored to check for visible signs of microbial growth or inhibition of the growth. If the colour changed to red it indicated growth (of microbes) and blue indicated no growth or inhibition of growth.
# The MIC is defined as the absolute lowest concentration of active that provides complete microbial growth inhibition as indicated by the blue color of alamar blue under the tested condition.
# The procedure is as follows:
# The parameter can be defined as follows:
# After all the observations were recorded and tabulated, the Fractional Inhibition Concentration (FIC) was calculated.
# This parameter is defined as follows:
# ΣFIC=FIC(component1)+FIC(component2)
# In this study, we have adopted a liberal approach defining any binary mixture with ΣFIC<0.9 as showing evidence of synergistic behavior.
# The experiments were carried out over a concentration range of ingredients as below:
Molecule,Inhibition distance (mm) = (Inhibition zone diameter − filter paper diameter)/2 ([1]; 0.75% AM) [mm],Inhibition distance (mm) = (Inhibition zone diameter − filter paper diameter)/2 ([1]; 1.5% AM) [mm],The range of concentration of the atractylenolide compound (ppm) where the ΣFIC was less than 0.9 [2],The range of ratio of atractylenolide compound/octopirox (w/w) where ΣFIC was less than 0.9 [2],Synergistic antimicrobial activity in combination with Octopirox® (ΣFIC assay) ([2]; binary combination with Octopirox® 0-50 ppm)
"Cc1cc(CC(C)CC(C)(C)C)n(O)c(=O)c1 (stereo not shown) [OCT, 1-hydroxy-4-methyl-6-(2,4,4-trimethylpentyl)-2(1H) pyridinone monoethanolamine salt]",2.7,2.7,,,
"C=C1CCC[C@]2(C)C[C@@H]3OC(=O)C(C)=C3C[C@@H]12 [Atractylenolide II, atractylenolide II]",,,31.25-1000 ppm,5-2560 w/w,
"zinc pyrithione [ZPTO, reference compound]",,,,,cannot interact synergistically
"C=C1CCC[C@]2(C)C=C3OC(=O)C(C)=C3C[C@@H]12 [Atractylenolide I, atractylenolide I]",,,31.25-500 ppm,5-1280 w/w,
